System: MDA-MB-468 cell line
Assay: Resazurin viability assay
Format: cell-based, human
Details: MDA-MB-468 cells
Description: Cell Culture. The MDA-MB-468 cell line was from ATCC. This cell line was established from a pleural effusion of patient with metastatic breast adenocarcinoma. The cells were maintained in RPMI medium supplemented with 10% (v/v) FBS, 0.3 mg/mL L-glutamine, and 0.1 mg/mL gentamicin at 37° C. in 5% CO2. Sub-culture using trypsin-EDTA was performed every 3-4 days with a split ratio of 1:3-1:6 to ensure actively proliferating cells. Resazurin Viability Assay. Cells were seeded in fully supplemented medium at a density of 7 000 cells per well in 96 well plates. After 24 hrs of cultivation, when the cells were 60% confluent, the medium was replaced with serum free medium to ensure synchronization of the cells and to increase cell sensitivity to treatment. Following 16 hrs of serum starvation, the medium was replaced with fresh serum free medium with or without Compound […], Norway), and NVP-BEZ235 (Cayman Chemicals, US) or solvent (DMSO, Sigma Aldrich, US). The cells were observed under the microscope to evaluate possible morphology changes and signs of stress before the addition of resazurin according to the manufacturers instructions (RnD Systems, UK). Resazurin was metabolized for 2 hrs (37° C., 5% CO2) before fluorescence was read at 544 nm excitation and 590 nm emission wavelengths (BioTek Synergy HT).

Q: Which results are given for Cn1c(=O)n(-c2ccc(C(C)(C)C#N)cc2)c2c3cc(-c4cnc5ccccc5c4)ccc3ncc21 [BEZ235]?
A: cytotoxicity at 5 µM (Homo sapiens, serum free medium, 5 μM of each inhibitor, 24 hrs of treatment, read-out: reduction of viability): ~30%; toxicity to the cells, each inhibitor alone (initial experiments) (25-100 μM, results not shown): toxic; signs of cellular stress or cytotoxicity, each inhibitor alone (initial experiments) (doses 1-5 μM, results not shown): little or no signs of cellular stress of cytotoxicity

From patent US10953004B2, “Combination therapy for proliferative diseases” (Avexxin AS, priority 2016, dated 2021)
